Results: patent US8609718B2, “Pharmaceutical composition used in treatment of hyperproliferative skin conditions and malignant melanomas comprising pachastrissamine as active ingredient” (Catholic University Industry Academy Cooperation Foundation, priority 2009, dated 2013)

Tests used:
[1] = tested on: malignant melanoma cell line B16F10; assay: Mouse malignant melanoma (B16F10) lung metastasis model; format: in vivo; settings: C57BL6 mouse, B16F10 1×10^6 via tail vein; inoculated once per 4 days (three times); lung on 14th day; FIG. 6
Description: In a C57BL6 mouse, pachastrissamine's effect on malignant melanoma metastasis inhibition was researched. A mouse (aged 6 weeks) was inoculated with a malignant melanoma cell line B16F10 (1×10^6) through a tail vein. After 24 hours from the inoculation, pachastrissamine was inoculated, and also, in a control group, PBS was inoculated in the same amount. Pachastrissamine was inoculated once per 4 days (three times), and on the 14th day from the inoculation of cells, the mouse was dissected to extract the lung. The extracted lung was immersed in 4% formalin solution for 16 hours or more, and washed for 16 hours or more. After the washing, the extracted lung was photographed, and other tissues were embedded in paraffin to make a block. Then, a tissue slice with a thickness of […] was prepared. The tissue slice was subjected to a deparaffin process for H&E (Hematoxylin & Eosin) staining, and then sequentially reacted with 100%, 90%, 80%, 70%, and 60% alcohol solutions to complete the hydration reaction. The completely hydrated slice was subjected to H&E staining, and then reacted with the alcohol solutions in reverse order of the hydration reaction to perform a dehydration reaction. When the dehydration reaction was completed, the slice was fixed on a slide and observed by a microscope.

AKT = assay: Western blotting of AKT phosphorylation; format: cell-based; settings: HaCaT, B16F10, A375, 10 μg/ml pachastrissamine, FIGS. 3A, 3B
Description: HaCaT, B16F10 and A375 cell lines were cultured in the same manner as described in Example 1. […] 30 minutes later, and 60 minutes later, each of the cell lines was resuspended in RIPA buffer [12 mM EDTA, 137 mM NaCl, 20 mM Tris-HCl (pH 8.0), 1 mM Na3VO4 (Sigma-Aldrich, USA) 10 mM NaF (Sigma), 1 mM PMSF (Sigma), 1% Triton X-100, 10% glycerol, protease inhibiting cocktail (Roche, Germany)], and then put on ice for 30 minutes so that the cells can be completely lysed. The lysate was centrifuged at 14000 rpm for 30 minutes, and the supernatant was collected. A BCA protein analysis kit (Pierce, Rockford, Ill.) was used to determine the concentration of each sample, and the sample was subjected to electrophoresis (SDS-PAGE). Western blotting was carried out on the protein isolated by the electrophoresis. After electrophoresis of the sample, the protein was transferred to a polyvinylidene fluoride membrane (Pall Corporation). Then, after blocking the membrane at room temperature for one hour using 5% BSA solution (Amresco, USA), it was treated with primary antibodies and reaction was carried out for 12 hours at 4° C. The primary antibodies were AKT antibody and Actin antibody (Cell Signaling Technology, Beverly, Mass.), which are antibodies associated in cell proliferation-related signaling. After reaction with primary antibodies, it was washed for about 30 minutes and further reacted for 1 hour at room temperature by treating with HRP-conjugated secondary antibodies. Then, after washing sufficiently for over 30 minutes, protein was identified using an ECL detection kit (intron Biotechnology).

HaCaT cell line = assay: Cell counting by hemocytometer, trypan blue exclusion, HaCaT; format: cell-based, human
Description: A HaCaT cell line was cultured in the same manner as described in Example 1. The cultured HaCaT cell line was plated onto a 60 mm plate at a concentration of 5×10^4 cells/well, and cultured in a CO2 incubator (37° C., 5%) for 24 hours. The cultured cells in respective plates were treated with pachastrissamine at a concentration of 10 μg/ml, and cultured in a CO2 incubator (37° C., 5%) for 24, 36, and 48 hours, respectively. After the culturing, the cells were washed with PBS, treated with trypsin-EDTA, and completely detached from the plate. Then, a hemocytometer was used to count the cells through trypan blue exclusion.
(§1) HaCaT, B16F10 and A375 cell lines were cultured in the same manner as described in Example 1. The cultured HaCaT cell line was plated onto a 60 mm plate at a concentration of 5×10^4 cells/well, and cultured in a CO2 incubator (37° C., 5%) for 24 hours. The cultured respective cells were divided into 4 groups. One group was added with only pachastrissamine (PA) at a concentration of 10 μg/ml; another group was added with lithium chloride (apoptosis inhibiting material) (at a final concentration of 300 nM) as well as pachastrissamine at a concentration of 10 μg/ml (PA+Li); and a third group was added with only lithium chloride (Li). The last group was a negative control group (Con) and was added with nothing. These groups were cultured in a CO2 incubator (37° C., 5%) for 24 hours, and then the number of cells were measured in the same manner as described in Example 2-2.

beta-catenin = assay: Beta-catenin protein in malignant melanoma cell line (FIG. 5B); format: cell-based
HaCaT cell = assay: Phase-contrast microscope morphology analysis of surviving cells; format: cell-based, human; settings: HaCaT, 24 hours
Description: as §1
The four groups of HaCaT cell samples were washed with PBS, and then surviving cells were subjected to morphology analysis through a phase-contrast microscope (see FIG. 2f).

p-FoxO3a (Ser 253) = assay: Western blotting of p-FoxO3a (Ser 253); format: cell-based; settings: HaCaT, A375, B16F10, 10 μg/ml, FIGS. 4B, 4C
Description: In the same manner as described in Example 4-1, a HaCaT cell line and malignant melanoma cell lines (A375 and B16F10) were treated with pachastrissamine and phytosphingosine at a concentration of 10 μg/ml for 30 minutes and 60 minutes, respectively. Then, western blotting was carried out using p-FoxO3a (Ser 253) antibody.

CCCCCCCCCCCCCC[C@@H]1OC[C@H](N)[C@@H]1O [pachastrissamine]
malignant melanoma metastasis to the lung compared to control group [1]: significantly inhibited | phosphorylation of AKT after 30 minutes (AKT; 5 μg/ml phytosphingosine, 30 minutes): reduction of phosphorylation of AKT | degree of AKT phosphorylation after 60 minutes (AKT; 60 minutes): increased | number of cells over culturing time (cell proliferation) (HaCaT cell line; 10 μg/ml, 24, 36 and 48 hours, control group increased, FIG. 2b): the number of cells decreased | number of cells compared to no treatment (HaCaT cell line; 10 μg/ml, 24 hours, FIGS. 2C, 2D): the number of cells was decreased | number of cells with lithium chloride as well as pachastrissamine, compared to only pachastrissamine (HaCaT cell line; pachastrissamine 10 μg/ml + lithium chloride 300 nM (PA+Li), 24 hours): the number of cells was higher | beta-catenin protein degradation in malignant melanoma cell line (beta-catenin): can induce the degradation of beta-catenin protein | number of surviving cells compared to negative control group (HaCaT cell; 10 μg/ml, phase-contrast microscope, FIG. 2f): the number of surviving cells was significantly reduced | cell division extent increased by lithium chloride, effect of pachastrissamine (HaCaT cell; pachastrissamine 10 μg/ml + lithium chloride 300 nM): inhibited | amount of expressed p-FoxO3a after 30 minutes (p-FoxO3a (Ser 253); 30 minutes): reduced | expression of p-FoxO3a after 60 minutes (p-FoxO3a (Ser 253); 60 minutes): increased an expression of p-FoxO3a
